Assay results published in US5530126A, “Process for the preparation of substituted 6-(pyrazol-3yl)-1,4-benzoxazin-3-ones” (Monsanto Company, priority 1994, dated 1996).

Columns and labels:
Type in all cases: in vivo
Indian Mustard [1] = assay: Pre-emergence herbicide test; details: Brassica juncea, read-out: % plant inhibition (Inmu); for inhibition at 11210 g/ha: 11.21 kg/ha; for inhibition at 1120 g/ha: 1.12 kg/ha
Method: (§1) The tests for pre-emergence herbicide activity are conducted as follows:
(§2) Topsoil is placed in an aluminum pan and compacted to a depth of 0.95 to 1.27 cm from the top of the pan. On the top of the soil is placed a predetermined number of seeds of each of several monocotyledonous and dicotyledonous annual plant species and/or vegetative propagules of various perennial plant species. A known amount of the active ingredient dissolved or suspended in an organic solvent, e.g., acetone, or water as carrier is then applied directly to the seed bed, which is then covered with a layer of untreated topsoil to level fill the pan. After treatment, the pans are moved to a greenhouse bench where they are watered from below as needed to give adequate moisture for germination and growth.
(§3) Approximately 10-14 days (usually 11 days) after seeding and treating, the pans are observed and the results (% inhibition) are recorded.
(§4) Tables 7 and 7A below summarize the results of the pre-emergence herbicidal activity tests of compounds of this invention in weeds. The herbicidal rating shown in these tables is the percent inhibition of each plant species. The plant species usually regarded as weeds which are utilized in one set of tests, the data for which are shown in the tables, are identified by letter headings above the columns in accordance with the following legend: […]

Yellow nutsedge [2] = assay: Pre-emergence herbicide test; details: Cyperus, read-out: % plant inhibition (Yens); for inhibition at 11210 g/ha: 11.21 kg/ha; for inhibition at 1120 g/ha: 1.12 kg/ha
Method: as §1, §2, §3, §4

Velvetleaf [3] = assay: Pre-emergence herbicide test; details: Abutilon theophrasti, read-out: % plant inhibition (Vele); for inhibition at 11210 g/ha: 11.21 kg/ha; for inhibition at 1120 g/ha: 1.12 kg/ha
Method: as §1, §2, §3, §4

Wild buckwheat [4] = assay: Pre-emergence herbicide test; details: Fallopia convolvulus, read-out: % plant inhibition (Wibw); for inhibition at 11210 g/ha: 11.21 kg/ha; for inhibition at 1120 g/ha: 1.12 kg/ha
Method: as §1, §2, §3, §4

Annual bluegrass [5] = assay: Pre-emergence herbicide test; details: read-out: % plant inhibition (Anbg); for inhibition at 11210 g/ha: 11.21 kg/ha; for inhibition at 1120 g/ha: 1.12 kg/ha
Method: as §1, §2, §3, §4

Barnyardgrass [6] = assay: Pre-emergence herbicide test; details: Echinochloa crus-galli, read-out: % plant inhibition (Bygr); for inhibition at 11210 g/ha: 11.21 kg/ha; for inhibition at 1120 g/ha: 1.12 kg/ha
Method: as §1, §2, §3, §4

Cocklebur [7] = assay: Pre-emergence herbicide test; details: Xanthium strumarium, read-out: % plant inhibition (Cobu); for inhibition at 11210 g/ha: 11.21 kg/ha; for inhibition at 1120 g/ha: 1.12 kg/ha
Method: as §1, §2, §3, §4

Seedling johnsongrass [8] = assay: Pre-emergence herbicide test; details: Sorghum halepense, read-out: % plant inhibition (Sejg); for inhibition at 11210 g/ha: 11.21 kg/ha; for inhibition at 1120 g/ha: 1.12 kg/ha
Method: as §1, §2, §3, §4

Morningglory [9] = assay: Pre-emergence herbicide test; details: Ipomoea, read-out: % plant inhibition (Mogl); for inhibition at 11210 g/ha: 11.21 kg/ha; for inhibition at 1120 g/ha: 1.12 kg/ha
Method: as §1, §2, §3, §4

Downy Brome [10] = assay: Pre-emergence herbicide test; details: Bromus tectorum, read-out: % plant inhibition (Dobr); for inhibition at 11210 g/ha: 11.21 kg/ha; for inhibition at 1120 g/ha: 1.12 kg/ha
Method: as §1, §2, §3, §4

Indian Mustard [11] = assay: Post-emergence herbicide test; details: Brassica juncea, read-out: % plant inhibition (Inmu); for inhibition at 11210 g/ha: 11.21 kg/ha; for inhibition at 1120 g/ha: 1.12 kg/ha
Text: (§5) Topsoil is placed in aluminum pans having holes in the bottom and compacted to a depth of 0.95 to 1.27 cm from the top of the pan. A predetermined number of seeds of each of several dicotyledonous and monocotyledonous annual plant species and/or vegetative propagules for the perennial plant species are placed on the soil and pressed into the soil surface. The seeds and/or vegetative propagules are covered with soil and leveled. The pans are then placed on a bench in the greenhouse and watered from below as needed. After the plants reach the desired age (two to three weeks), each pan, is removed individually to a spraying chamber and sprayed by means of an atomizer, operating at a spray pressure of 170.3 kPa (10 psig) at the application rates noted. In the spray solution is an amount of an emulsifying agent mixture to give a spray solution or suspension which contains about 0.4% by volume of the emulsifier. The spray solution or suspension contains a sufficient amount of the candidate chemical in order to give application rates of the active ingredient corresponding to those shown in Tables 8 and 8A, while applying a total amount of solution or suspension equivalent to 1870 L/Ha (200 gallons/acre). The pans were returned to the greenhouse and watered as before and the injury to the plants as compared to the control is observed at approximately 10-14 days (usually 11 days) and in some instances observed again at 24-28 days (usually 25 days) after spraying. The post-emergent herbicidal activity shown in these tables is the percent inhibition of each plant species.

Yellow nutsedge [12] = assay: Post-emergence herbicide test; details: Cyperus, read-out: % plant inhibition (Yens); for inhibition at 11210 g/ha: 11.21 kg/ha; for inhibition at 1120 g/ha: 1.12 kg/ha
Text: as §5

Velvetleaf [13] = assay: Post-emergence herbicide test; details: Abutilon theophrasti, read-out: % plant inhibition (Vele); for inhibition at 11210 g/ha: 11.21 kg/ha; for inhibition at 1120 g/ha: 1.12 kg/ha
Text: as §5

Wild buckwheat [14] = assay: Post-emergence herbicide test; details: Fallopia convolvulus, read-out: % plant inhibition (Wibw); for inhibition at 11210 g/ha: 11.21 kg/ha; for inhibition at 1120 g/ha: 1.12 kg/ha
Text: as §5

Annual bluegrass [15] = assay: Post-emergence herbicide test; details: read-out: % plant inhibition (Anbg); for inhibition at 11210 g/ha: 11.21 kg/ha; for inhibition at 1120 g/ha: 1.12 kg/ha
Text: as §5

Barnyardgrass [16] = assay: Post-emergence herbicide test; details: Echinochloa crus-galli, read-out: % plant inhibition (Bygr); for inhibition at 11210 g/ha: 11.21 kg/ha; for inhibition at 1120 g/ha: 1.12 kg/ha
Text: as §5

Cocklebur [17] = assay: Post-emergence herbicide test; details: Xanthium strumarium, read-out: % plant inhibition (Cobu); for inhibition at 11210 g/ha: 11.21 kg/ha; for inhibition at 1120 g/ha: 1.12 kg/ha
Text: as §5

Seedling johnsongrass [18] = assay: Post-emergence herbicide test; details: Sorghum halepense, read-out: % plant inhibition (Sejg); for inhibition at 11210 g/ha: 11.21 kg/ha; for inhibition at 1120 g/ha: 1.12 kg/ha
Text: as §5

Morningglory [19] = assay: Post-emergence herbicide test; details: Ipomoea, read-out: % plant inhibition (Mogl); for inhibition at 11210 g/ha: 11.21 kg/ha; for inhibition at 1120 g/ha: 1.12 kg/ha
Text: as §5

Downy Brome [20] = assay: Post-emergence herbicide test; details: Bromus tectorum, read-out: % plant inhibition (Dobr); for inhibition at 11210 g/ha: 11.21 kg/ha; for inhibition at 1120 g/ha: 1.12 kg/ha
Text: as §5

Row | Compound | inhibition at 11210 g/ha (Indian Mustard [1]) | inhibition at 11210 g/ha (Yellow nutsedge [2]) | inhibition at 11210 g/ha (Velvetleaf [3]) | inhibition at 11210 g/ha (Wild buckwheat [4]) | inhibition at 11210 g/ha (Annual bluegrass [5]) | inhibition at 11210 g/ha (Barnyardgrass [6]) | inhibition at 11210 g/ha (Cocklebur [7]) | inhibition at 11210 g/ha (Seedling johnsongrass [8]) | inhibition at 11210 g/ha (Morningglory [9]) | inhibition at 11210 g/ha (Downy Brome [10]) | inhibition at 11210 g/ha (Indian Mustard [11]) | inhibition at 11210 g/ha (Yellow nutsedge [12]) | inhibition at 11210 g/ha (Velvetleaf [13]) | inhibition at 11210 g/ha (Wild buckwheat [14]) | inhibition at 11210 g/ha (Annual bluegrass [15]) | inhibition at 11210 g/ha (Barnyardgrass [16]) | inhibition at 11210 g/ha (Cocklebur [17]) | inhibition at 11210 g/ha (Seedling johnsongrass [18]) | inhibition at 11210 g/ha (Morningglory [19]) | inhibition at 11210 g/ha (Downy Brome [20]) | also measured
1 | Cn1nc(-c2cc(S(=O)(=O)Cl)c(Cl)cc2Cl)c(Cl)c1C(F)(F)F [Compound 89] | 70% | 10% | 90% | 30% | 0% | 0% | 0% | 0% | 20% | 0% | 80% | 0% | 100% | 50% | 10% | 20% | 100% | 70% | 100% | 10% | –
2 | Cn1nc(-c2cc(CCl)c(Cl)cc2F)c(Cl)c1C(F)(F)F [Compound 109] | – | – | – | – | – | – | – | – | – | – | – | – | – | – | – | – | – | – | – | – | inhibition at 1120 g/ha (Indian Mustard [1]): 90%; inhibition at 1120 g/ha (Yellow nutsedge [2]): 0%; inhibition at 1120 g/ha (Velvetleaf [3]): 90%; inhibition at 1120 g/ha (Wild buckwheat [4]): 100%; inhibition at 1120 g/ha (Annual bluegrass [5]): 20%; inhibition at 1120 g/ha (Barnyardgrass [6]): 90%; inhibition at 1120 g/ha (Cocklebur [7]): 30%; inhibition at 1120 g/ha (Seedling johnsongrass [8]): 80%; inhibition at 1120 g/ha (Morningglory [9]): 70%; inhibition at 1120 g/ha (Downy Brome [10]): 20%; inhibition at 1120 g/ha (Indian Mustard [11]): 40%; inhibition at 1120 g/ha (Yellow nutsedge [12]): 10%; inhibition at 1120 g/ha (Velvetleaf [13]): 100%; inhibition at 1120 g/ha (Wild buckwheat [14]): 90%; inhibition at 1120 g/ha (Annual bluegrass [15]): 40%; inhibition at 1120 g/ha (Barnyardgrass [16]): 30%; inhibition at 1120 g/ha (Cocklebur [17]): 40%; inhibition at 1120 g/ha (Seedling johnsongrass [18]): 20%; inhibition at 1120 g/ha (Morningglory [19]): 60%; inhibition at 1120 g/ha (Downy Brome [20]): 0%
3 | COCOc1cc(-c2nn(C)c(C(F)(F)F)c2Cl)c(F)cc1Cl [Compound 308, 4-Chloro-3-(4-chloro-2-fluoro-5-(methoxy-methoxy)phenyl)-1-methyl-5-(trifluoromethyl)-1H-pyrazole] | – | – | – | – | – | – | – | – | – | – | – | – | – | – | – | – | – | – | – | – | inhibition at 1120 g/ha (Indian Mustard [1]): 100%; inhibition at 1120 g/ha (Yellow nutsedge [2]): 40%; inhibition at 1120 g/ha (Velvetleaf [3]): 100%; inhibition at 1120 g/ha (Wild buckwheat [4]): 100%; inhibition at 1120 g/ha (Annual bluegrass [5]): 100%; inhibition at 1120 g/ha (Barnyardgrass [6]): 100%; inhibition at 1120 g/ha (Cocklebur [7]): 80%; inhibition at 1120 g/ha (Seedling johnsongrass [8]): 100%; inhibition at 1120 g/ha (Morningglory [9]): 100%; inhibition at 1120 g/ha (Downy Brome [10]): 100%; inhibition at 1120 g/ha (Indian Mustard [11]): 90%; inhibition at 1120 g/ha (Yellow nutsedge [12]): 20%; inhibition at 1120 g/ha (Velvetleaf [13]): 100%; inhibition at 1120 g/ha (Wild buckwheat [14]): 100%; inhibition at 1120 g/ha (Annual bluegrass [15]): 100%; inhibition at 1120 g/ha (Barnyardgrass [16]): 100%; inhibition at 1120 g/ha (Cocklebur [17]): 90%; inhibition at 1120 g/ha (Seedling johnsongrass [18]): 100%; inhibition at 1120 g/ha (Morningglory [19]): 90%; inhibition at 1120 g/ha (Downy Brome [20]): 100%
4 | Cn1nc(-c2cc(CBr)c(Cl)cc2F)c(Cl)c1C(F)(F)F [Compound 108, 3-[5-(bromomethyl)-4-chloro-2-fluorophenyl]-4-chloro-1-methyl-5-(trifluoromethyl)-1H-pyrazole] | 100% | 20% | 100% | 100% | 50% | 100% | 80% | 90% | 90% | 100% | 100% | 0% | 100% | 100% | 90% | 100% | 100% | 90% | 100% | 100% | –
